Assays:
Recombinant JAK1 = biological target: T1, Recombinant JAK1 (Homo sapiens, UniProt P23458); assay: JAK biochemical assay (LANCE Ultra TR-FRET), JAK1; settings: recombinant JAK1, TR-FRET; read-out: Biochemical Assay (μM) JAK1
T1 construct: purchased Carna Biosciences
In short: (§1)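 % inhibition relative to vehicle was derived from TR-FRET signal proportional to ULight-substrate phosphorylation. Reactions used recombinant kinase in HEPES pH 7.5 buffer containing EGTA, MgCl2, DTT and Tween-20.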

Recombinant JAK2 = biological target: T2, Recombinant JAK2 (Homo sapiens, UniProt O60674); assay: JAK biochemical assay (LANCE Ultra TR-FRET), JAK2; settings: recombinant JAK2, TR-FRET; read-out: Biochemical Assay (μM) JAK2
T2 construct: purchased Carna Biosciences
T2 sequence (O60674 whole entry): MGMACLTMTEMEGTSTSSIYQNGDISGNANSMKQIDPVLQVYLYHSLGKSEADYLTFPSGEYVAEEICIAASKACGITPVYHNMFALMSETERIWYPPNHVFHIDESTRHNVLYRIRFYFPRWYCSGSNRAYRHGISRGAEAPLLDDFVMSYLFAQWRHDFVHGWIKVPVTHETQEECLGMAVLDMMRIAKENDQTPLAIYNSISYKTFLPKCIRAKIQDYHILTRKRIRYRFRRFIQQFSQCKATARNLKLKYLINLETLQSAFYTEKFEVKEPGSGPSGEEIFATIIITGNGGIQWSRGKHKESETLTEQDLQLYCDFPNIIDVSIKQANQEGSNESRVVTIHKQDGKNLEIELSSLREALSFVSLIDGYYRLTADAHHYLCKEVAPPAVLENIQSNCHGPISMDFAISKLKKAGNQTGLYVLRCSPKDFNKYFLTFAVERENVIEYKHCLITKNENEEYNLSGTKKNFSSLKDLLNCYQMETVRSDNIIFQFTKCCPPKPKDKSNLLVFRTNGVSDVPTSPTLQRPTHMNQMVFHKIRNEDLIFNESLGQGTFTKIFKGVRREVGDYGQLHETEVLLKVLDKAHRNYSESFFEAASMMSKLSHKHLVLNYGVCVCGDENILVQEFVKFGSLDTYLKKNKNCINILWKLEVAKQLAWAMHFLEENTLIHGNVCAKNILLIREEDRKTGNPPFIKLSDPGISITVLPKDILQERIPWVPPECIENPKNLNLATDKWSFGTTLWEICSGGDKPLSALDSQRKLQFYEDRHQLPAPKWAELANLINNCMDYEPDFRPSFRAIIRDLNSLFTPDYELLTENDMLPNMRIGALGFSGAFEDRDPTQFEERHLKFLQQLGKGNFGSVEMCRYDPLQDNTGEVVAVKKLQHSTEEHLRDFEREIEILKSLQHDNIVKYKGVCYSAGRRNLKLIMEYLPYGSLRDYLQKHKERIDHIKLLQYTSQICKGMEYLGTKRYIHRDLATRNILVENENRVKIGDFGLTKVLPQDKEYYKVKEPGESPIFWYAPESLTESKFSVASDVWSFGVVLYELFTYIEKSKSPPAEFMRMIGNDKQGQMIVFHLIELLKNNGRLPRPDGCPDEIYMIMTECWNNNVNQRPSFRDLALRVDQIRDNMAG
In short: as §1

Recombinant JAK3 = biological target: T3, Recombinant JAK3 (Homo sapiens, UniProt P52333); assay: JAK biochemical assay (LANCE Ultra TR-FRET), JAK3; settings: recombinant JAK3, TR-FRET; read-out: Biochemical Assay (μM) JAK3
T3 construct: purchased Carna Biosciences
T3 sequence (P52333 1-1124): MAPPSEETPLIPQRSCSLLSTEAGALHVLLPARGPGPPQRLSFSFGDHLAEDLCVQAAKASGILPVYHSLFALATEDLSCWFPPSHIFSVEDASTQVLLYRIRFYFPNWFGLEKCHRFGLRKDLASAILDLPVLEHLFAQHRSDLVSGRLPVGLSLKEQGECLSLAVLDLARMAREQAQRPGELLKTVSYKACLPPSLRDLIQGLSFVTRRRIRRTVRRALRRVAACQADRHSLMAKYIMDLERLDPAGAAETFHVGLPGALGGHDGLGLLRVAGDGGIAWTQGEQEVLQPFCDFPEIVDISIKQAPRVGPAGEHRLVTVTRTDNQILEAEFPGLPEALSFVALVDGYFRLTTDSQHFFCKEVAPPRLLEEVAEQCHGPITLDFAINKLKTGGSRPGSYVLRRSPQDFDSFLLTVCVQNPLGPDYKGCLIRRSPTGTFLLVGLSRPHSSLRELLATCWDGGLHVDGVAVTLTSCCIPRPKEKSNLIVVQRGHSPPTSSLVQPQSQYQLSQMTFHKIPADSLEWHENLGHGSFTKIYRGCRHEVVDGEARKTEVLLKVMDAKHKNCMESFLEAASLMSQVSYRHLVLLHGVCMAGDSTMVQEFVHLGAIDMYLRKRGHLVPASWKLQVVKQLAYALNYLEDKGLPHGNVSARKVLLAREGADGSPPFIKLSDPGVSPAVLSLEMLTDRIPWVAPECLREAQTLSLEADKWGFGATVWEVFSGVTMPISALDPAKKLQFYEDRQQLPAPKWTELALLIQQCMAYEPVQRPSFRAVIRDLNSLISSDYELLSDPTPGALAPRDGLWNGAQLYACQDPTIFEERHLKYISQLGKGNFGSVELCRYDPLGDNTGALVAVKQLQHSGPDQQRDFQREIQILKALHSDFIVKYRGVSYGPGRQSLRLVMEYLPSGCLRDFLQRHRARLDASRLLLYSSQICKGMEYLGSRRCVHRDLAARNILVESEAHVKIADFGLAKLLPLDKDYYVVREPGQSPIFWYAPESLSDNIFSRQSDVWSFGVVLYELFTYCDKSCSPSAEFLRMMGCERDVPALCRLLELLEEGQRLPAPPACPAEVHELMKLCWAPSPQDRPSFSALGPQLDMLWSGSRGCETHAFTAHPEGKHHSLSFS
In short: as §1

Recombinant TYK2 = biological target: T4, Recombinant TYK2 (Homo sapiens, UniProt P29597); assay: JAK biochemical assay (LANCE Ultra TR-FRET), TYK2; settings: recombinant TYK2, TR-FRET; read-out: Biochemical Assay (μM) TYK2
T4 construct: purchased Carna Biosciences
T4 sequence (P29597 whole entry): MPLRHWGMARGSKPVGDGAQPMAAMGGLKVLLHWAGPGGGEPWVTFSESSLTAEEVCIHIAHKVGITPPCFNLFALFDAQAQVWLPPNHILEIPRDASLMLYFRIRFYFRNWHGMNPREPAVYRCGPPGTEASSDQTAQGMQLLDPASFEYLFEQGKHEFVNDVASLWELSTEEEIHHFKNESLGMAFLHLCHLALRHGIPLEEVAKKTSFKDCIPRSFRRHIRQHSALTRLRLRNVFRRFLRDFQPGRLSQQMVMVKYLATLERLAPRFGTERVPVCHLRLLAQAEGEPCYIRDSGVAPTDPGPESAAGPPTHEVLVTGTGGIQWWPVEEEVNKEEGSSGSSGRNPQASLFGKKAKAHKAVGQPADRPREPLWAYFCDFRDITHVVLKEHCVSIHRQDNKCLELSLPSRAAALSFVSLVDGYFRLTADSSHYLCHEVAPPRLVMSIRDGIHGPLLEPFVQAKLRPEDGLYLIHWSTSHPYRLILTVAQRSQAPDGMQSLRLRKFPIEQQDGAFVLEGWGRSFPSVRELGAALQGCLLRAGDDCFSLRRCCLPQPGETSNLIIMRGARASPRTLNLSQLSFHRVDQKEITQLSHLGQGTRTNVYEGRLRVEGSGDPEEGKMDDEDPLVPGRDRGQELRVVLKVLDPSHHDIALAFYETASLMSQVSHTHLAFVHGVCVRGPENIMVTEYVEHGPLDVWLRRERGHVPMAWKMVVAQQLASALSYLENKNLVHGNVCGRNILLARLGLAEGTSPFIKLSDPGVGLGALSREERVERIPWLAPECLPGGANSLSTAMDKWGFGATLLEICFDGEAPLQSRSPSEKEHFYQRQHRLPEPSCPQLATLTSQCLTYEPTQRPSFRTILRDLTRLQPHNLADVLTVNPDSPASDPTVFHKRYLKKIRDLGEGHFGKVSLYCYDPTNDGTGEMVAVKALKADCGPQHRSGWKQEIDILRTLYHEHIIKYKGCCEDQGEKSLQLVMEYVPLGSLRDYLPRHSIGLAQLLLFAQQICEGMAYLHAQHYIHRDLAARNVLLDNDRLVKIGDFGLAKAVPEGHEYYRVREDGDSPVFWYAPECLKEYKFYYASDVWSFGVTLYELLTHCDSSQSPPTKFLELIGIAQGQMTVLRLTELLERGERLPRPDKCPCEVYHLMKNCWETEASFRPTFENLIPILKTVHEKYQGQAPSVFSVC
In short: as §1

[1] = tested on: STAT3 phosphorylation by IL-6 in TF-1 cells; assay: JAK cellular assay: STAT3 phosphorylation by IL-6 in TF-1 cells (HTRF); assay type: cell-based; settings: Homo sapiens, TF-1, TF-1 cells, IL-6 30 ng/ml, pSTAT3 HTRF; read-out: Cell Based Assay (μM) TF-1/IL-6/pSTAT3
In short: (§2)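 Phospho-STAT3 (IL-6, 30 ng/ml) and phospho-STAT5 (GMCSF, 5 ng/ml) read by HTRF in lysates after 20 min cytokine exposure, minus unstimulated-cell background. Cells were serum-starved overnight, plated at 120,000/well, given compound 30 min at 37 °C beforehand; DMSO 0.2% final.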

[2] = tested on: STAT5 phosphorylation by GMCSF in TF-1 cells; assay: JAK cellular assay: STAT5 phosphorylation by GMCSF in TF-1 cells (HTRF); assay type: cell-based; settings: Homo sapiens; TF-1 cells, GMCSF 5 ng/ml, pSTAT5 HTRF; read-out: Cell Based Assay (μM) TF-1/GMCSF/pSTAT5
In short: as §2

[3] = tested on: STAT5 phosphorylation by IL-2 in HT-2 cells; assay: STAT5 phosphorylation by IL-2 in HT-2 cells (HTRF); assay type: cell-based; settings: HT2, HT-2 cells, IL-2 50 U/ml, pSTAT5 HTRF; read-out: Cell Based Assay (μM) HT-2/IL-2/pSTAT5
Description: HT-2 cells were starved […] in RPMI phenol red with 10% fetal bovine serum for 4 hours in CO2 incubator maintained at 37° c. Compounds were diluted in DMSO and added to 96 well plate containing a final density of 1,20,000 cells per well. Cells and compounds are incubated for 30 minutes in CO2 incubator maintained at 37° C. and final DMSO concentration in cell based assay was 0.2%. Human recombinant cytokine, IL-2 (50 U/ml) was added to the plate containing cells and compound and incubated for 20 minutes with gentle tapping/shaking at every 5 minutes once. Compound mediated effects on STAT5 phosphorylation was measured in the lysates prepared by using CISBIO pSTAT5 detection kit by HTRF method. Background signal obtained from cells which were not activated with cytokines, was subtracted from vehicle controls and compound treated wells.

T1 sequence (P23458 whole entry): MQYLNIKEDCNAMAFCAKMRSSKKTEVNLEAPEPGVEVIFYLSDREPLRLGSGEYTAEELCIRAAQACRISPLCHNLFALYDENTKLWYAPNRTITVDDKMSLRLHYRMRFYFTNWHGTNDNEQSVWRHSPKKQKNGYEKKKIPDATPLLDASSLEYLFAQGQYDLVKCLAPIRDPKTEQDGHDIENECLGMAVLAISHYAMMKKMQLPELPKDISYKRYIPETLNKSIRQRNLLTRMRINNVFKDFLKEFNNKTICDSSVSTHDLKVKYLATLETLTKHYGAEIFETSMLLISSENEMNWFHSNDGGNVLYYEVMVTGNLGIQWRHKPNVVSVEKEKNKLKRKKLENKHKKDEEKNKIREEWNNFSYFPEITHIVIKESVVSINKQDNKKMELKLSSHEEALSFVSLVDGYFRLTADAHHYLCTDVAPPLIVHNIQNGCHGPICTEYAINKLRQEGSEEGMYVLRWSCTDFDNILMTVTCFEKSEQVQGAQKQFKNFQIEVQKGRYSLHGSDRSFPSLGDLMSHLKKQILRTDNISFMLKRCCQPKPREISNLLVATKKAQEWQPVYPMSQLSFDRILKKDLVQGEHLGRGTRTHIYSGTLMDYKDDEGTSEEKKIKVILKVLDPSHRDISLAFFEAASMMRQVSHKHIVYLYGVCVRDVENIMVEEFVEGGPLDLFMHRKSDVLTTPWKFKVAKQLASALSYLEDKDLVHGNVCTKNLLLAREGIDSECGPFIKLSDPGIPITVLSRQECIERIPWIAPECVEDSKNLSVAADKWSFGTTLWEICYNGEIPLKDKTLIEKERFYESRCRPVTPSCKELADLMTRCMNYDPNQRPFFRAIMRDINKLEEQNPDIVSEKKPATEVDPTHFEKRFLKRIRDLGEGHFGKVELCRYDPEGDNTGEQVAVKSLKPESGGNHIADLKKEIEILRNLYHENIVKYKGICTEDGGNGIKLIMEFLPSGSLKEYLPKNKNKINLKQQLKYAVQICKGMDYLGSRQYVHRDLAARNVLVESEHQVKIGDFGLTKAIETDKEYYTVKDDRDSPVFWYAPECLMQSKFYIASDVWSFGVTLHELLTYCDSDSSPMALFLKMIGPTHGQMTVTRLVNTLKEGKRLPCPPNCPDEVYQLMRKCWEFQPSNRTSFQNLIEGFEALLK

IC50 (Recombinant JAK1) | IC50 (Recombinant JAK2) | IC50 (Recombinant JAK3) | IC50 (Recombinant TYK2) | IC50 [1] | IC50 [2] | IC50 [3] | SMILES
< 0.1 µM | > 0.1 µM | < 0.1 µM | > 1 µM | > 0.8 µM | > 1 µM | 1.5 µM | FC(F)(F)[C@@H](c1ccc(-n2cc(-c3ccnc4[nH]cnc34)cn2)nc1)C1COC1 (single isomer, unassigned) [Example 1184]
< 0.1 µM | > 0.1 µM | > 0.1 µM | > 1 µM | 2 µM | > 1 µM | > 3 µM | FC(F)(F)[C@H](c1ccc(-n2cc(-c3ccnc4[nH]cnc34)cn2)nc1)C1COC1 (single isomer, unassigned) [Example 1185]
– | > 1 µM | > 1 µM | > 1 µM | > 10 µM | > 10 µM | > 10 µM | O=C(NCC(F)(F)F)N1CCN(c2ccnc3[nH]c(=O)[nH]c23)CC1 [Example 1011, N-(2,2,2-trifluoroethyl)-4-(2,3-dihydro-2-oxo-1H-imidazo[4,5-b]pyridin-7-yl)piperazine-1-carboxamide]
– | – | > 1 µM | > 1 µM | > 10 µM | > 10 µM | > 10 µM | O=C(Nc1ccncc1)N1CCN(c2ccnc3[nH]c(=O)[nH]c23)CC1 [Example 1014, 4-(2,3-dihydro-2-oxo-1H-imidazo[4,5-b]pyridin-7-yl)-N-(pyridin-4-yl)piperazine-1-carboxamide]
0.028 µM | 0.044 µM | 0.146 µM | 0.096 µM | > 10 µM | > 10 µM | > 10 µM | N#CCNC(=O)n1cc(-c2ccnc3[nH]c(=O)[nH]c23)cn1 [Example 1027, N-(cyanomethyl)-4-(2,3-dihydro-2-oxo-1H-imidazo[4,5-b]pyridin-7-yl)-1H-pyrazole-1-carboxamide]
0.053 µM | 0.3 µM | 0.12 µM | > 1 µM | > 1 µM | > 10 µM | > 1 µM | CS(=O)(=O)NCc1ccc(-n2cc(-c3ccnc4[nH]cnc34)cn2)nc1 [Example 1090, N-((6-(4-(3H-imidazo[4,5-b]pyridin-7-yl)-1H-pyrazol-1-yl)pyridin-3-yl)methyl)methanesulfonamide]
> 0.1 µM | > 0.5 µM | > 0.5 µM | > 1 µM | > 1 µM | > 1 µM | > 1 µM | CCC(c1ccc(-n2cc(-c3ccnc4[nH]cnc34)cn2)nc1)C(F)(F)F (stereo not drawn) [Example 1122, 7-(1-(5-(1,1,1-trifluorobutan-2-yl)pyridin-2-yl)-1H-pyrazol-4-yl)-3H-imidazo[4,5-b]pyridine]
0.003 µM | 0.036 µM | 0.007 µM | > 1 µM | 0.34 µM | > 1 µM | < 1 µM | OC(c1ccc(-n2cc(-c3ccnc4[nH]cnc34)cn2)nc1)(C1CC1)C(F)(F)F (stereo not drawn) [Example 1126, 1-(6-(4-(3H-imidazo[4,5-b]pyridin-7-yl)-1H-pyrazol-1-yl)pyridin-3-yl)-1-cyclopropyl-2,2,2-trifluoroethanol]
< 0.1 µM | > 0.1 µM | < 0.1 µM | > 1 µM | > 0.5 µM | > 10 µM | > 1 µM | CC(C)C(O)(c1ccc(-n2cc(-c3ccnc4[nH]cnc34)cn2)nc1)C(F)(F)F (stereo not drawn) [Example 1129, 2-(6-(4-(3H-imidazo[4,5-b]pyridin-7-yl)-1H-pyrazol-1-yl)pyridin-3-yl)-1,1,1-trifluoro-3-methylbutan-2-ol]
< 0.1 µM | – | < 0.1 µM | > 1 µM | > 0.5 µM | > 1 µM | > 0.5 µM | CNS(=O)(=O)CCC(c1ccc(-n2cc(-c3ccnc4[nH]cnc34)cn2)nc1)C(F)(F)F (stereo not drawn) [Example 1142, 3-(6-(4-(3H-imidazo[4,5-b]pyridin-7-yl)-1H-pyrazol-1-yl)pyridin-3-yl)-4,4,4-trifluoro-N-methylbutane-1-sulfonamide]
0.003 µM | > 0.03 µM | – | > 0.1 µM | > 0.1 µM | 1 µM | > 0.1 µM | CC(C)NC(=O)CCC(O)(c1ccc(-n2cc(-c3ccnc4[nH]cnc34)cn2)nc1)C(F)(F)F (stereo not drawn) [Example 1238, 4-(6-(4-(3H-imidazo[4,5-b]pyridin-7-yl)-1H-pyrazol-1-yl)pyridin-3-yl)-5,5,5-trifluoro-4-hydroxy-N-isopropylpentanamide]
< 0.1 µM | < 0.1 µM | < 0.1 µM | > 0.5 µM | > 0.75 µM | – | > 0.8 µM | N#CCC(=O)NCCC(c1ccc(-n2cc(-c3ccnc4[nH]cnc34)cn2)nc1)C(F)(F)F (stereo not drawn) [Example 1248, N-(3-(6-(4-(3H-imidazo[4,5-b]pyridin-7-yl)-1H-pyrazol-1-yl)pyridin-3-yl)-4,4,4-trifluorobutyl)-2-cyanoacetamide]
< 0.1 µM | < 0.1 µM | < 0.1 µM | > 1 µM | > 1 µM | – | > 1 µM | N#CC1CN(C(=O)CCC(c2ccc(-n3cc(-c4ccnc5[nH]cnc45)cn3)nc2)C(F)(F)F)C1 (stereo not drawn) [Example 1250, 1-(4-(6-(4-(3H-imidazo[4,5-b]pyridin-7-yl)-1H-pyrazol-1-yl)pyridin-3-yl)-5,5,5-trifluoropentanoyl)azetidine-3-carbonitrile]
< 0.1 µM | < 0.1 µM | < 0.1 µM | > 0.5 µM | 1 µM | – | > 2 µM | CC(C)N1CCC([C@](O)(c2ccc(-n3cc(-c4ccnc5[nH]cnc45)cn3)cc2)C(F)(F)F)C1 (stereo partly drawn) [Example 1251, (S)-1-(4-(4-(3H-imidazo[4,5-b]pyridin-7-yl)-1H-pyrazol-1-yl)phenyl)-2,2,2-trifluoro-1-(1-isopropylpyrrolidin-3-yl)ethanol]
< 0.1 µM | < 0.1 µM | < 0.1 µM | > 0.5 µM | 1.1 µM | – | 1.63 µM | CC(C)N1CCC([C@@](O)(c2ccc(-n3cc(-c4ccnc5[nH]cnc45)cn3)cc2)C(F)(F)F)C1 (stereo partly drawn) [Example 1252, (R)-1-(4-(4-(3H-imidazo[4,5-b]pyridin-7-yl)-1H-pyrazol-1-yl)phenyl)-2,2,2-trifluoro-1-(1-isopropylpyrrolidin-3-yl)ethanol]

— US12516056B2, “Compounds for inhibition of janus kinase 1” (MANKIND PHARMA LTD., priority 2019, dated 2026)
